From patent EP0197829A1, “5H-pyrido[3',4':4,5]pyrrolo[3,2-c]pyridine derivatives, process for their preparation and their antitunour activity” (SANOFI, priority 1985, dated 1986)
Where two headings read alike, the source gives them in different places.

Columns and labels:
[1] = in vivo; design: species or system souris; conditions: mouse, ip, 100 mg/kg
Experimental: Ainsi, l'administration à des souris hybrides CDF1 saines, en une injection unique par la voie intrapéritonéale, de doses croissantes des composés à tester (5 mg, 10 mg, 20 mg, 40 mg/kg) a permis de constater que, à ces doses, les produits étaient parfaitement tolérés puisque le taux de survivants était de 100 p. 100.
Dans les mêmes conditions, administrés à des souris BDF1 saines, les taux de survivants étaient de 100 p. 100 jusqu'à 100 mg/kg pour les dérivés 1, 3 et 9 et jusqu'à 200 mg/kg pour les dérivés 2 et 8.

[2] = tested on: leucémie P 388; type: in vivo, souris hybrides CDF1
Description: L'activité antitumorale a été testée in vivo sur différentes tumeurs selon le protocole général suivant : Toutes les souris mâles ou femelles sont inoculées par voie intrapéritonéale au jour Jo avec une quantité déterminée de cellules tumorales viables, variable selon la tumeur.
Elles sont ensuite réparties en différents lots. Chaque lot correspondant aux animaux traités par le produit à tester à une dose déterminée est composé de lO souris. Dans ce cas, le produit à tester est dissous dans l'eau distillée et il est administré, pendant n jours (J1-Jn) variables selon le protocole choisi, par voie intrapéritonéale à raison de 0,1 ml par lO g de poids des souris traitées, les doses du produit administré étant précisées dans les tableaux ci-dessous.
Le lot "Contrôle négatif", correspondant aux animaux qui ne sont pas traités par un produit, comprend 2 √N animaux, N étant égal au nombre total de souris traitées par un produit.
Enfin, tous lés essais sont conduits parallèlement à l'étude d'un lot appelé "Contrôle positif" de 10 animaux qui est traité par une molécule active, variable selon le protocole choisi, dans les mêmes conditions que les lots traités par le produit à tester, afin de valider l'essai.
L'activité antitumorale est évaluée en considérant l'augmentation du temps de survie des animaux traités par rapport à celui des animaux du lot "Contrôle négatif" selon la formule : • Jour médian de survie des animaux traités à une T/C = dose donnée de produit x 100 • Jour médian de survie des animaux "Contrôle négatif"
Un composé est considéré comme étant actif lorsque la valeur du rapport T/C est égale ou supérieure à 125 % selon le protocole retenu. Il est toxique lorsque cette valeur est égale ou inférieure à 85 %. Le produit est également considéré comme toxique lorsque la variation pondérale, exprimée en grammes et calculée par la formule : Poids moyen du lot mesuré au jour 5 - poids moyen du même lot au jour 1, est égale ou inférieure à -4g . a) Test de la leucémie P 388 (GERAN et al., Cancer Chemother, 1972, 2, 07-57).
Les essais sont effectués avec des souris hybrides CDF1 inoculées par voie intrapéritonéale avec […] leucémiques de la lignée P 388. Le composé à tester est administré pendant 5 jours (Jl-J5). Le contrôle positif du test est le 5-fluorouracile qui est administré dans les mêmes conditions.
[…] Un composé est considéré comme étant actif lorsque le rapport T/C est supérieur à 127 %.

[3] = tested on: lignée tumorale leucémie L 1210; experiment: In vitro cytotoxicity on L 1210 leukemia cell culture; type: cell-based; conditions: Mus musculus, L1210; concentration inhibiting cell proliferation by 50 p. 100, after 48 h contact; read-out: ID 50 (the source's name)
Experimental: 1) In vitro : (PAOLETTI et al., Chem. Biol. Interaction, 1979, 25, 45-58).
L'activité cytotoxique des composés de l'invention a été évaluée par des essais in vitro. Ces essais consistent à ajouter des concentrations croissantes du composé à tester à une culture cellulaire de la lignée tumorale leucémie L 1210 en phase exponentielle de croissance. Les cellules sont incubées à 37°C dans une étuve à C02 et comptées toutes les 24 heures. Le calcul de l'ID 50 (concentration du produit exprimée en micromole 1^-1 qui inhibe la prolifération cellulaire à 50 p. 100) est effectué après 48 heures de contact. Ainsi déterminées, les ID 50 des composés de l'invention sont rassemblées dans le tableau I ci-après : […]

[4] = 5 mg/kg i.p. J1-J5, at day J 40
[5] = 10 mg/kg i.p. J1-J5, at day J 40
[6] = 20 mg/kg i.p. J1-J5, at day J 40
[7] = 40 mg/kg i.p. J1-J5, at day J 40
[8] = 80 mg/kg i.p. J1-J5, at day J 40
[9] = 1,25 mg/kg i.p. J1-J5, at day J 40
[10] = 2,5 mg/kg i.p. J1-J5, at day J 40

Structure (SMILES)	Jour médian de survie ([2]; 5 mg/kg i.p. J1-J5)	T/C % ([2]; 5 mg/kg i.p. J1-J5) [%]	Survivants [2, 4]	Jour médian de survie ([2]; 10 mg/kg i.p. J1-J5)	T/C % ([2]; 10 mg/kg i.p. J1-J5) [%]	Survivants [2, 5]	Jour médian de survie ([2]; 20 mg/kg i.p. J1-J5)	T/C % ([2]; 20 mg/kg i.p. J1-J5) [%]	Survivants [2, 6]	Jour médian de survie ([2]; 40 mg/kg i.p. J1-J5)	T/C % ([2]; 40 mg/kg i.p. J1-J5) [%]	Survivants [2, 7]	Jour médian de survie ([2]; 80 mg/kg i.p. J1-J5)	T/C % ([2]; 80 mg/kg i.p. J1-J5) [%]	Survivants [2, 8]	Jour médian de survie ([2]; 1,25 mg/kg i.p. J1-J5)	T/C % ([2]; 1,25 mg/kg i.p. J1-J5) [%]	Survivants [2, 9]	Jour médian de survie ([2]; 2,5 mg/kg i.p. J1-J5)	T/C % ([2]; 2,5 mg/kg i.p. J1-J5) [%]	also measured
Cc1cnc(NCCCN(C)C)c2c1[nH]c1ccncc12 [Dérivé N° 3, [(diméthylamino-3 propyl-1)amino]-1 méthyl-4 5-H pyrido[3',4':4,5]pyrrolo[3,2-c]pyridine]	16,25	147	0	17,75	161	0	20,0	181	0	19,3	175	1	7,3	66	0	14,1	128	0	15,0	136	survival [1]: 100%; Jour médian de survie ([2]; 0,625 mg/kg i.p. J1-J5): 13,1; T/C % ([2]; 0,625 mg/kg i.p. J1-J5): 119%; Survivants ([2]; 0,625 mg/kg i.p. J1-J5, at day J 40): 0; Survivants [2, 10]: 0
CCN(CC)CCCNc1ncc(C)c2c1c1cnccc1n2C [Dérivé N° 4, [(diéthylamino-3 propyl-1)amino]-1 diméthyl-4,5 5-H pyrido[3',4':4,5]pyrrolo[3,2-c]pyridine]	14,25	130	0/10	16,13	147	0/10	18,0	164	0/10	18,75	172	0/10	8,9	81	0/10	12,6	115	0/10	14,25	130	IC50 [3]: 130 nM; Jour médian de survie ([2]; 50 mg/kg i.p. J1-J5): 25; T/C % ([2]; 50 mg/kg i.p. J1-J5): 207%; Survivants ([2]; 50 mg/kg i.p. J1-J5, à J 42): 3/10 à J 42; Survivants [2, 10]: 0/10
